Data: PubChem BioAssay (NCI)
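Cells were grown in 96-well plates and exposed to each compound for 48 hours at five concentrations; endpoints were interpolated linearly between bracketing concentrations, or set to the highest concentration if not reached. GI50 marks 50% less growth. TGI: concentration producing complete growth inhibition.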

Assays:
Assay in all cases: DTP human tumour cell line panel, 48 h
[1] = system: BT-549 breast
[2] = system: MDA-MB-231 breast
[3] = system: SK-MEL-2 melanoma
[4] = system: COLO 205 colon
[5] = system: NCI-H23 lung
[6] = system: A498 renal
[7] = system: HT29 colon
[8] = system: UACC-257 melanoma
[9] = system: DU-145 prostate
[10] = system: 786-0 renal
[11] = system: OVCAR-8 ovarian
[12] = system: T-47D breast
[13] = system: RXF 393 renal
[14] = system: OVCAR-4 ovarian
[15] = system: PC-3 prostate
[16] = system: SW-620 colon
[17] = system: SN12C renal
[18] = system: KM12 colon
[19] = system: M14 melanoma
[20] = system: NCI-H460 lung
[21] = system: SNB-19 CNS
[22] = system: NCI-H522 lung
[23] = system: NCI/ADR-RES ovarian
[24] = system: HS 578T breast
[25] = system: SNB-75 CNS
[26] = system: UO-31 renal
[27] = system: SF-295 CNS
[28] = system: HCC-2998 colon
[29] = system: IGROV1 ovarian
[30] = system: HOP-92 NSCLC
[31] = system: NCI-H226 lung
[32] = system: SF-539 CNS
[33] = system: CAKI-1 renal
[34] = system: SK-OV-3 ovarian
[35] = system: HCT-116 colon
[36] = system: OVCAR-5 ovarian
[37] = system: MDA-MB-435
[38] = system: MCF7 breast
[39] = system: HOP-62 NSCLC
[40] = system: SR leukemia
[41] = system: UACC-62 melanoma
[42] = system: SK-MEL-28 melanoma
[43] = system: U251 CNS
[44] = system: A549 NSCLC
[45] = system: MALME-3M melanoma
[46] = system: HCT-15 colon
[47] = system: HL-60(TB) leukemia
[48] = system: K-562 leukemia
[49] = system: ACHN renal
[50] = system: SF-268 CNS
[51] = system: SK-MEL-5 melanoma
[52] = system: TK-10 renal
[53] = system: LOX IMVI melanoma
[54] = system: EKVX NSCLC

COc1cc2c(cc1OC)C(Sc1ccc(C)cc1)c1c(nc(N)c(C#N)c1N)O2 (centres undefined) gave a GI50 [1] of 1220 nM, a TGI [1] of 2490 nM and a GI50 [2] of 1650 nM. For the same molecule, the TGI [2] was 3130 nM, the GI50 [3] was 1590 nM and the TGI [3] was 2990 nM. For the same molecule, the GI50 [4] was 1490 nM, the TGI [4] was 2870 nM and the GI50 [5] was 1590 nM. It also gave a TGI [5] of 3100 nM, a GI50 [6] of 1380 nM and a TGI [6] of 2670 nM. The GI50 [7] was 1770 nM, the TGI [7] was 3430 nM and the GI50 [8] was 1630 nM. For the same molecule, the TGI [8] was 3070 nM, the GI50 [9] was 1680 nM and the TGI [9] was 3050 nM. The GI50 [10] was 1420 nM, the TGI [10] was 2790 nM and the GI50 [11] was 1550 nM. The TGI [11] was 2910 nM, the GI50 [12] was 1220 nM and the TGI [12] was 3560 nM. For the same molecule, the GI50 [13] was 1150 nM, the TGI [13] was 2420 nM and the GI50 [14] was 1660 nM. The TGI [14] was 3070 nM, the GI50 [15] was 1510 nM and the TGI [15] was 2930 nM. The GI50 [16] was 1240 nM, the TGI [16] was 2740 nM and the GI50 [17] was 1490 nM. It also gave a TGI [17] of 2860 nM, a GI50 [18] of 1630 nM and a TGI [18] of 3010 nM. It also gave a GI50 [19] of 1770 nM, a TGI [19] of 3290 nM and a GI50 [20] of 1760 nM. For the same molecule, the TGI [20] was 3360 nM, the GI50 [21] was 1460 nM and the TGI [21] was 2840 nM. For the same molecule, the GI50 [22] was 1620 nM, the TGI [22] was 3070 nM and the GI50 [23] was 1670 nM. It also gave a TGI [23] of 3370 nM, a GI50 [24] of 1970 nM and a TGI [24] of 4870 nM. It also gave a GI50 [25] of 1220 nM, a TGI [25] of 2470 nM and a GI50 [26] of 1070 nM. For the same molecule, the TGI [26] was 2250 nM, the GI50 [27] was 1600 nM and the TGI [27] was 3050 nM. The GI50 [28] was 1580 nM, the TGI [28] was 3120 nM and the GI50 [29] was 715 nM. It also gave a TGI [29] of 2040 nM, a GI50 [30] of 1510 nM and a TGI [30] of 2930 nM. It also gave a GI50 [31] of 1900 nM, a TGI [31] of 3990 nM and a GI50 [32] of 1570 nM. For the same molecule, the TGI [32] was 2930 nM, the GI50 [33] was 1050 nM and the TGI [33] was 2250 nM. The GI50 [34] was 1910 nM, the TGI [34] was 3350 nM and the GI50 [35] was 1510 nM. It also gave a TGI [35] of 3030 nM, a GI50 [36] of 1810 nM and a TGI [36] of 3310 nM. The GI50 [37] was 1580 nM, the TGI [37] was 3010 nM and the GI50 [38] was 742 nM. For the same molecule, the TGI [38] was 2270 nM, the GI50 [39] was 1800 nM and the TGI [39] was 3240 nM. For the same molecule, the GI50 [40] was 291 nM, the TGI [40] was greater than 100000 nM and the GI50 [41] was 1740 nM. It also gave a TGI [41] of 3220 nM, a GI50 [42] of 1670 nM and a TGI [42] of 3060 nM. The GI50 [43] was 1360 nM, the TGI [43] was 2750 nM and the GI50 [44] was 1730 nM. The TGI [44] was 3270 nM, the GI50 [45] was 1740 nM and the TGI [45] was 3240 nM. The GI50 [46] was 1000 nM, the TGI [46] was 2430 nM and the GI50 [47] was 431 nM. It also gave a TGI [47] of 4050 nM, a GI50 [48] of 558 nM and a TGI [48] greater than 100000 nM. For the same molecule, the GI50 [49] was 1510 nM, the TGI [49] was 2860 nM and the GI50 [50] was 1560 nM. For the same molecule, the TGI [50] was 3080 nM, the GI50 [51] was 1780 nM and the TGI [51] was 3220 nM. For the same molecule, the GI50 [52] was 1200 nM, the TGI [52] was 2470 nM and the GI50 [53] was 1050 nM. The TGI [53] was 2420 nM, the GI50 [54] was 1690 nM and the TGI [54] was 3130 nM.

NC(N)=Nc1ccc(Oc2cccc(Nc3ccc(Cl)c(C(F)(F)F)c3)c2)cn1 showed a GI50 [6] of 1230 nM, a TGI [6] of 2670 nM and a GI50 [13] of 1780 nM. The TGI [13] was 3580 nM, the GI50 [23] was 3740 nM and the TGI [23] was 30500 nM. For the same molecule, the GI50 [25] was 1420 nM, the TGI [25] was 2770 nM and the GI50 [34] was 1890 nM. It also gave a TGI [34] of 3430 nM, a GI50 [47] of 1890 nM and a TGI [47] of 4520 nM. The GI50 [48] was 1910 nM, the TGI [48] was greater than 100000 nM and the GI50 [49] was 1740 nM. The TGI [49] was 3210 nM.
